Structures are written as SMILES.

A short description of series [1]: Protective index, ratio of neurotoxicity in mouse to anticonvulasnt activity for MES-induced seizure mouse model. The class given is toxicity, organism-based. The note with it: in vivo, read-out: PI.
Another series is filed under the species Mus musculus. The series is described as follows: Anticonvulsant activity in mouse assessed as reduction in MES-induced seizures by maximal electroshock seizure test. Type of series: functional. (In general: In the maximal electroshock model the usual endpoint is tonic extension of the hind limbs.)
Series [2] in a line: Anticancer activity against human HCT116 cells measured after 48 hrs by SRB assay. The class given is functional, cell-based. Conditions: hct-116. (In general: In SRB staining, fixed cells bind dye roughly in proportion to their protein.)
Series [3] concerns HepG2. Put plainly: Cytotoxicity against human HepG2 cells measured after 48 hrs by SRB assay. Type of series: functional, cell-based.
Series [4] in a line: Cytotoxicity against human lymphocytes measured after 72 hrs by MTT assay. Type of series: cell-based. Conditions: Lymphocyte. A general note: Tetrazolium assays rely on reduction of a dye to a coloured formazan, in cell work by metabolically active cells.
A further series has as its system HT-29. The series is described as follows: Anticancer activity against human HT-29 cells measured after 72 hrs by MTT assay. Conditions: HT-29, 72 h. The class given is functional, cell-based.
A short description of series [5]: Anticancer activity against human HCT116 cells measured after 72 hrs by MTT assay. Type of series: functional, cell-based. Conditions: HCT-116, 72 h.
The species entered for a further series is Cavia porcellus. The series is described as follows: Antihistaminic activity in guinea pigs assessed as supression of histamine induced bronchospasm.
Series [6] is described as follows: Anticancer activity against human NCI lung cancer cell by MTT assay. The class given is functional, cell-based. The note with it: Cancer cell lines.
Series [7] concerns the target Epidermal growth factor receptor (Homo sapiens) (UniProt P00533). The series is described as follows: Inhibition of EGFR-tyrosine kinase (unknown origin) at 10 uM measured after 2 hrs by kinase-glo plus luminescence kinase assay.
In series [8] the test system is HepG2. Put plainly: Potency index, ratio of doxorubicin IC50 to compound IC50 for anticancer activity against human HepG2 cells after 48 hrs by SRB assay. Type of series: functional.
The target in series [9] is T1, Cathepsin H (Capra hircus) (UniProt A0A060INS8).
T1 sequence (whole entry): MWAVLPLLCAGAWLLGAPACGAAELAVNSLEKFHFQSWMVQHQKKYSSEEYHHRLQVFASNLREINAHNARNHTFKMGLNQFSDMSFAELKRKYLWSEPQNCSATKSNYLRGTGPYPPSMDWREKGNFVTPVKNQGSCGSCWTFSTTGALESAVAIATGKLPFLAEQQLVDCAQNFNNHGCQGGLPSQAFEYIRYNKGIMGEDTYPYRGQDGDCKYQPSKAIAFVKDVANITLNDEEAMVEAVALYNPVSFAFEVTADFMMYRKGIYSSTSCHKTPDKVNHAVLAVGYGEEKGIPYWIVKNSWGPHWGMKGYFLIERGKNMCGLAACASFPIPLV
The series is described as follows: Inhibition of goat cathepsin H at 10 uM in presence of Leu-beta-NA after 30 mins by colorimetric method.

In series [10] the target is T1, Cathepsin H (Capra hircus). Put plainly: Inhibition of goat cathepsin H at 750 uM in presence of Leu-beta-NA after 30 mins by colorimetric method.
In series [11] the test system is Plasmodium berghei. Put plainly: Antimalarial activity against chloroquine-sensitive Plasmodium berghei ANKA infected Swiss albino mouse assessed as suppression of parasitemia at 16.59 mg/kg administered for 4 consecutive days measured on 5th day by Giemsa staining based microscopic method. Type of series: functional.
Series [12] relates to Plasmodium berghei. Put plainly: Antimalarial activity against chloroquine-sensitive Plasmodium berghei ANKA infected Swiss albino mouse assessed as mean survival time at 16.59 mg/kg administered for 4 consecutive days. Type of series: functional.
Series [13] has as its target Epidermal growth factor receptor (Homo sapiens) (UniProt P00533). Put plainly: Inhibition of EGFR-TK receptor (unknown origin). The note with it: concentration not given here.
For the next series, the target named is Thymidine phosphorylase (Escherichia coli K-12, UniProt P07650). Put plainly: Inhibition of recombinant Escherichia coli thymidine phosphorylase using thymidine as substrate measured after 10 mins at 30 degC by spectrophotometric method.
Chain of Thymidine phosphorylase (P07650 whole entry): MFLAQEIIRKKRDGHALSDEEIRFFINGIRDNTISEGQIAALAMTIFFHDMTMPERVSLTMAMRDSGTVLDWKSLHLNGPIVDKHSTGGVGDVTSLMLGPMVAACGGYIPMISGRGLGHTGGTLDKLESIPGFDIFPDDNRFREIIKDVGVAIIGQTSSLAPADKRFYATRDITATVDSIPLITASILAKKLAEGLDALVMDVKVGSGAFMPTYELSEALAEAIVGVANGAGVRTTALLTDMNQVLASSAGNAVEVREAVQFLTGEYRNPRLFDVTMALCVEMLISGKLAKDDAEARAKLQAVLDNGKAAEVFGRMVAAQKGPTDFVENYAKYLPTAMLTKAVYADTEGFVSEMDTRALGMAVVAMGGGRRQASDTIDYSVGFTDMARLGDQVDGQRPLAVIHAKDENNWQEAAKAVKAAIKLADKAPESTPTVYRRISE
Series [14] relates to Plasmodium berghei. Put plainly: Antimalarial activity against chloroquine-sensitive Plasmodium berghei ANKA infected Swiss albino mouse assessed as parasitemia at 18.73 mg/kg administered for 4 consecutive days measured on 5th day by Giemsa staining based microscopic method. Type of series: functional.
In series [15] the test system is Plasmodium berghei. The series is described as follows: Antimalarial activity against chloroquine-sensitive Plasmodium berghei ANKA infected Swiss albino mouse assessed as suppression of parasitemia at 18.73 mg/kg administered for 4 consecutive days measured on 5th day by Giemsa staining based microscopic method. Type of series: functional.
The test system of series [16] is Plasmodium berghei. The series is described as follows: Antimalarial activity against chloroquine-sensitive Plasmodium berghei ANKA infected Swiss albino as mean survival time at 18.73 mg/kg administered for 4 consecutive days. The class given is functional.
For series [17], the target named is Cathepsin B (Capra hircus) (UniProt H9B8T9). Conditions: 100 nM.
Description: Inhibition of goat cathepsin B at 100 nM in presence of BANA after 30 mins by colorimetric method
Series [18] has the same target. The note with it: 25 uM.
Description: Inhibition of goat cathepsin B at 25 uM in presence of BANA after 30 mins by colorimetric method

Chain of Epidermal growth factor receptor (Homo sapiens) (P00533 whole entry): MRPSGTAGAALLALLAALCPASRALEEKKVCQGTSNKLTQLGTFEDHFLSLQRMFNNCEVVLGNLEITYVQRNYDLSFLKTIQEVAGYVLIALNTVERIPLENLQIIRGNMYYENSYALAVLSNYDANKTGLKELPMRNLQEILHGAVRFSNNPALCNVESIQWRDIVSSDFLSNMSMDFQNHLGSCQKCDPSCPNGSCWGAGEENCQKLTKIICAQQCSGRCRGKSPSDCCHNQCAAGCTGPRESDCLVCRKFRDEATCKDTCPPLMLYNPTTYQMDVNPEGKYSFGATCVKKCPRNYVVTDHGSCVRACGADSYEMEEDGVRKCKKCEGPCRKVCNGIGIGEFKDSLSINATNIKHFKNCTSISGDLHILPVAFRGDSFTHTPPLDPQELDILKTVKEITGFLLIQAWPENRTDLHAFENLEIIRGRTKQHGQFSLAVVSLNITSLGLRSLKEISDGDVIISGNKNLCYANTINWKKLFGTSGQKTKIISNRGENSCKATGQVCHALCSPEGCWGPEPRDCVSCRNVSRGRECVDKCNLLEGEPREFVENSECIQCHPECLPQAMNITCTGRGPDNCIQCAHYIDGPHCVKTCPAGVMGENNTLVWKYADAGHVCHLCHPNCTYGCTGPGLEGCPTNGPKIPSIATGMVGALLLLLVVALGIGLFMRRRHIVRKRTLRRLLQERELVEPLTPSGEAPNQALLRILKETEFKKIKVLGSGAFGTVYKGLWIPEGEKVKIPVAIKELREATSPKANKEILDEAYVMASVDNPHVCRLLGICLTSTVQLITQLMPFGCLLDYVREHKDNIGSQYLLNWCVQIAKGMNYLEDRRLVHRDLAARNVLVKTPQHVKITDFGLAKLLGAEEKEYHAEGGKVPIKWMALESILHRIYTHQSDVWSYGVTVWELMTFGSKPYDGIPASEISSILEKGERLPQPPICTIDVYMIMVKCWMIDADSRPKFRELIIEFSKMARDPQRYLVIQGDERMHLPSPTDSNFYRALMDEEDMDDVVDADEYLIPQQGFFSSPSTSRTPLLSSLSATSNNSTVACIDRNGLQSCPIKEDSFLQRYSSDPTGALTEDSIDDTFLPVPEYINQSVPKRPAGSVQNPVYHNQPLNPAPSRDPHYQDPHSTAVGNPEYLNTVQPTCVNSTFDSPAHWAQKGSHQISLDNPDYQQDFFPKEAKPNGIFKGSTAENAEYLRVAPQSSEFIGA

Take `O=c1c2ccccc2nc(-n2cncn2)n1-c1cccc(Br)c1`: the selectivity ratio in [1] is above 26. Further, in the series listed under Mus musculus, the median effective dose (ED50) was 94.6 mg/kg.
Take `Cc1ccc(-c2cc(-c3ccc(-n4c(-c5ccco5)nc5ccccc5c4=O)cc3)[nH]c(=N)c2C#N)cc1`: the half-maximal inhibitory concentration (IC50) in series [2] was determined as 1.2 µM; with HepG2 [3] it was 6.7 µM.
Take `O=c1c2cc(N3CCN(c4ccccc4F)CC3)ccc2ncn1Cc1ccccc1`: the IC50 in series [4] was 197 µM; with HT-29, 50.9 µM; in series [5] it was 46 µM.
With `Cc1nnc2n(-c3cccc(Cl)c3)c(=O)c3ccccc3n12`, the “inhibition (INH)” value in the series listed under Cavia porcellus is reported as 69.65%.
In series [6], `CN(Cc1cnc2nc(N)nc(N)c2n1)c1ccc(C(=O)N[C@@H](CCC(=O)O)C(=O)O)cc1` [METHOTREXATE] had a concentration for half-maximal inhibition (IC50) of 2.4 µM.
Regarding `N#CC1=C(N)OC(c2ccc(-n3c(-c4ccco4)nc4ccccc4c3=O)cc2)=CC1c1ccc(Cl)cc1` (configuration not stated), the inhibition in [7] was 95.6%. In addition, in the series with HepG2 [8], the “Ratio IC50” value is listed as 24.
Regarding `O=C1NC(c2ccc(F)cc2)Nc2ccccc21` (configuration not stated), the inhibition in series [9] turned out to be 100%; in series [10] it was 50%.
With `COc1ccc(-c2cc(-c3ccc(-n4c(-c5ccco5)nc5ccccc5c4=O)cc3)[nH]c(=N)c2C#N)cc1`, the IC50 stood at 0.2 µM in [2] and 6.6 µM in the series with HepG2 [3]. In addition, the “Ratio IC50” value in the series on HepG2 [8] worked out at 4.
`COc1cccc2c1C(=O)c1c(O)c3c(c(O)c1C2=O)C[C@@](O)(C(=O)CO)C[C@@H]3O[C@H]1C[C@H](N)[C@H](O)[C@H](C)O1` [DOXORUBICIN]: the half-inhibitory concentration (IC50) in [2] is 4.8 µM; with HepG2 [3] it was 5.7 µM.
In the case of `Cc1cc(C)nc(NS(=O)(=O)c2ccc(-n3c(C)nc4ccc(F)cc4c3=O)cc2)n1`, the half-maximal inhibitory concentration (IC50) in series [6] stood at 2.51 µM.
Consider `O=c1c2ccccc2nc(-n2cncn2)n1-c1ccc(Cl)cc1`, for which, in series [1], the selectivity ratio was above 25.5. For the same molecule, in the series listed under Mus musculus, the ED50 was 88 mg/kg.
Consider `O=c1c2ccccc2nc(/C=C/c2ccc(O)cc2)n1-c1ccccc1`, for which the inhibition in vivo at 16.59 mg/kg with Plasmodium berghei [11] stood at 67.6%. Further, the MST in the series on Plasmodium berghei [12] was determined as 8.3 days.
For the molecule `O=C(/C=C/c1ccccc1)c1ccc(-n2c(-c3ccco3)nc3ccccc3c2=O)cc1`, the inhibition in [13] worked out at 84%.
Consider `O=c1[nH]c(-c2cc(O)ccc2O)nc2ccccc12`, for which the concentration for half-maximal inhibition (IC50) on Thymidine phosphorylase was determined as 59.5 µM.
As to `CN(C)CCC(c1ccc(Cl)cc1)c1ccccn1.O=C(O)/C=C\C(=O)O` (configuration not stated) [CHLORPHENIRAMINE MALEATE], in the series filed under Cavia porcellus, the “inhibition (INH)” value was found to be 70.09%.
`COc1cc(/C=C/c2nc3ccccc3c(=O)n2-c2ccccc2C)ccc1O`: the Activity in the series on Plasmodium berghei [14] is given as 17.71%. In addition, in the series with Plasmodium berghei [15], the inhibition in vivo at 18.73 mg/kg was found to be 72.9%. The same molecule had an MST with Plasmodium berghei [16] of 9.2 days.
For `Cc1ccc(C2NC(=O)c3ccccc3N2)cc1` (configuration not stated), the inhibition in series [17] is 50%; in [18] it was 100%.
For the molecule `O=c1[nH]c(-c2ccc(O)c(O)c2)nc2ccccc12`, on Thymidine phosphorylase, the IC50 was 42.9 µM.

Usually ED50 stands for the dose that gives a 50% effect, or the effect in half of the subjects. A word on the IC50: it is the midpoint of a concentration-inhibition curve. The term inhibition denotes the relative decrease from the control value, in per cent. By inhibition in vivo is commonly meant the relative decrease from the control value, in per cent.

The values are drawn from ChEMBL document CHEMBL3804814, “Quinazolines and quinazolinones as ubiquitous structural fragments in medicinal chemistry: An update on the development of synthetic methods and pharmacological diversification” (Bioorg Med Chem, 2016).
